Experimental data as given in patent US5527907A, “Macrolide immunomodulators” (Abbott Laboratories, priority 1994, dated 1996).
Where two headings read alike, the source gives them in different places. Blank lines part the entries; values can stand above or below the molecule they belong to.

Tests used:
[1] = tested on: human mixed lymphocyte reaction; assay: human mixed lymphocyte reaction (MLR) assay; assay type: cell-based
Procedure: The immunosuppressant activity of the compounds of the present invention was determined using the human mixed lymphocyte reaction (MLR) assay described by Kino, T. et al. in Transplantation Proceedings, XIX(5):36-39,Suppl. 6 (1987).

[2] = alone or in combination with picibanil; cited from earlier work
[3] = tested on: formation of IgE-like antibodies; conditions: cited from earlier work
[4] = tested on: FKBP-12; conditions: cited from earlier work
[5] = tested on: Candida albicans; conditions: particularly against Candida albicans, both in vitro and in vivo; cited from earlier work
[6] = tested on: T-cell activation; conditions: cited from earlier work
[7] = tested on: adjuvant arthritis; conditions: model for rheumatoid arthritis; cited from earlier work
[8] = tested on: organ grafts in histoincompatible rodents; conditions: cited from earlier work
[9] = tested on: experimental allergic encephalomyelitis; conditions: model for multiple sclerosis; cited from earlier work
[10] = Mixed Leukocyte Response (MLR), Table 1, read-out: IC50

IC50 [1, 10]: 0.96 nM
Compound: CO[C@H]1C[C@@H]2CC[C@@H](C)[C@@](O)(O2)C(=O)C(=O)N2CCCC[C@H]2C(=O)O[C@H]([C@H](C)C[C@@H]2CC[C@H](N=[N+]=[N-])[C@H](OC)C2)CC(=O)[C@H](C)/C=C(\C)[C@@H](O)[C@@H](OC)C(=O)[C@H](C)C[C@H](C)/C=C/C=C/C=C/1C [Example 50]

Compound: CO[C@H]1C[C@@H]2CC[C@@H](C)[C@@](O)(O2)C(=O)C(=O)N2CCCC[C@H]2C(=O)O[C@H]([C@H](C)C[C@@H]2CC[C@@H](O)[C@H](OC)C2)CC(=O)[C@H](C)/C=C(\C)[C@@H](O)[C@@H](OC)C(=O)[C@H](C)C[C@H](C)/C=C/C=C/C=C/1C [rapamycin]
antitumor activity [2]: antitumor activity
inhibition of formation of IgE-like antibodies [3]: effectively inhibit the formation of IgE-like antibodies
binding to FKBP-12 [4]: binds to FKBP-12
antifungal activity [5]: antifungal activity
inhibition of T-cell activation [6]: inhibit T-cell activation
effectiveness as an immunosuppressant [7]: effective as an immunosuppressant
survival time of organ grafts [8]: prolong survival time of organ grafts
effectiveness as an immunosuppressant [9]: effective as an immunosuppressant

IC50 [1, 10]: 1.81 nM
Compound: CO[C@H]1C[C@@H]2CC[C@@H](C)[C@@](O)(O2)C(=O)C(=O)N2CCCC[C@H]2C(=O)O[C@H]([C@H](C)C[C@@H]2CC[C@H](OC)[C@H](OC)C2)CC(=O)[C@H](C)/C=C(\C)[C@@H](O)[C@@H](OC)C(=O)[C@H](C)C[C@H](C)/C=C/C=C/C=C/1C [Example 74]

IC50 [1, 10]: 0.99 nM
Compound: CO[C@H]1C[C@@H]2CC[C@@H](C)[C@@](O)(O2)C(=O)C(=O)N2CCCC[C@H]2C(=O)O[C@H]([C@H](C)C[C@@H]2CC[C@H](n3ccccc3=O)[C@H](OC)C2)CC(=O)[C@H](C)/C=C(\C)[C@@H](O)[C@@H](OC)C(=O)[C@H](C)C[C@H](C)/C=C/C=C/C=C/1C [Example 72]

Compound: CO[C@H]1C[C@@H]2CC[C@@H](C)[C@@](O)(O2)C(=O)C(=O)N2CCCC[C@H]2C(=O)O[C@H]([C@H](C)C[C@@H]2CC[C@H](O)[C@H](OC)C2)CC(=O)[C@H](C)/C=C(\C)[C@@H](O)[C@@H](OC)C(=O)[C@H](C)C[C@H](C)/C=C/C=C/C=C/1C [Example 10, 42-epi-rapamycin]
IC50 [1]: 0.03 nM

IC50 [1, 10]: 0.03 nM
Compound: CO[C@H]1C[C@@H]2CC[C@@H](C)[C@@](O)(O2)C(=O)C(=O)N2CCCC[C@H]2C(=O)O[C@H]([C@H](C)C[C@@H]2CC[C@H](Sc3ncc[nH]3)[C@H](OC)C2)CC(=O)[C@H](C)/C=C(\C)[C@@H](O)[C@@H](OC)C(=O)[C@H](C)C[C@H](C)/C=C/C=C/C=C/1C [Example 38]

IC50 [1, 10]: 0.14 nM
Compound: CO[C@H]1C[C@@H]2CC[C@@H](C)[C@@](O)(O2)C(=O)C(=O)N2CCCC[C@H]2C(=O)O[C@H]([C@H](C)C[C@@H]2CC[C@H](Sc3nccn3C)[C@H](OC)C2)CC(=O)[C@H](C)/C=C(\C)[C@@H](O)[C@@H](OC)C(=O)[C@H](C)C[C@H](C)/C=C/C=C/C=C/1C [Example 39]

IC50 [1, 10]: 0.15 nM
Compound: CO[C@H]1C[C@@H]2CC[C@@H](C)[C@@](O)(O2)C(=O)C(=O)N2CCCC[C@H]2C(=O)O[C@H]([C@H](C)C[C@@H]2CC[C@@H](OC(=O)N(C)OC)[C@H](OC)C2)CC(=O)[C@H](C)/C=C(\C)[C@@H](O)[C@@H](OC)C(=O)[C@H](C)C[C@H](C)/C=C/C=C/C=C/1C [Example 17]

IC50 [1, 10]: 0.13 nM
Compound: CO[C@H]1C[C@@H]2CC[C@@H](C)[C@@](O)(O2)C(=O)C(=O)N2CCCC[C@H]2C(=O)O[C@H]([C@H](C)C[C@@H]2CC[C@@H](OC(=O)N3CCOCC3)[C@H](OC)C2)CC(=O)[C@H](C)/C=C(\C)[C@@H](O)[C@@H](OC)C(=O)[C@H](C)C[C@H](C)/C=C/C=C/C=C/1C [Example 3]

Compound: C=CC[C@@H]1/C=C(\C)C[C@H](C)C[C@H](OC)[C@H]2O[C@@](O)(C(=O)C(=O)N3CCCC[C@H]3C(=O)O[C@H](/C(C)=C/[C@@H]3CC[C@@H](O)[C@H](OC)C3)[C@H](C)[C@@H](O)CC1=O)[C@H](C)C[C@@H]2OC [FK-506]
binding to FKBP-12 [4]: binds to FKBP-12

IC50 [1, 10]: 0.12 nM
Compound: CO[C@H]1C[C@@H]2CC[C@@H](C)[C@@](O)(O2)C(=O)C(=O)N2CCCC[C@H]2C(=O)O[C@H]([C@H](C)C[C@@H]2CC[C@H](n3ccc(=O)cc3)[C@H](OC)C2)CC(=O)[C@H](C)/C=C(\C)[C@@H](O)[C@@H](OC)C(=O)[C@H](C)C[C@H](C)/C=C/C=C/C=C/1C [Example 71]
